Experimental data from patent publication US6737383B1, “Herbicidal oxadiazolidines” (priority 1999, dated 2004).

Tests used:
Johnson grass = experiment: Test D Johnson grass; format: in vivo, Sorghum halepense; conditions: Preemergence, 0 to 100 scale
Outline: (§1)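 Values are visual plant-response ratings (0 no injury, 100 complete control) recorded 14 to 21 days after herbicide treatment, using a non-phytotoxic solvent mixture containing surfactant. Preemergence applications went to the surface of pots holding freshly sown seed in sandy loam.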

common pursiane = experiment: Test D common purslane; format: in vivo, Portulaca oleracea; conditions: Preemergence, 0 to 100 scale
Outline: as §1

tall mallow = experiment: Test D tall mallow; format: in vivo, Malva sylvestris; conditions: Preemergence, 0 to 100 scale
Outline: as §1

sandbur = experiment: Test D sandbur; format: in vivo, Cenchrus echinatus; conditions: Preemergence, 0 to 100 scale
Outline: as §1

surinam grass = experiment: Test D surinam grass; format: in vivo, Brachiaria decumbens; conditions: Preemergence, 0 to 100 scale
Outline: as §1

common groundsel = experiment: Test D common groundsel; format: in vivo, Senecio vulgaris; conditions: Preemergence, 0 to 100 scale
Outline: as §1

Spanishneedles = experiment: Test D Spanishneedles; format: in vivo, Bidens bipinnata; conditions: Rate 500 g/ha; Preemergence; 0 to 100 scale
Outline: as §1

guineagrass = experiment: Test D guineagrass; format: in vivo, Panicum maximum; conditions: Preemergence, 0 to 100 scale
Outline: as §1

large crabgrass = experiment: Test D large crabgrass; format: in vivo, Digitaria sanguinalis; conditions: Preemergence, 0 to 100 scale
Outline: as §1

dallisgrass = experiment: Test D dallisgrass; format: in vivo, Paspalum dilatatum; conditions: Preemergence, 0 to 100 scale
Outline: as §1

Alexandergrass = experiment: Test D Alexandergrass; format: in vivo, Brachiaria plantaginea; conditions: Preemergence, 0 to 100 scale
Outline: as §1

goosegrass = experiment: Test D goosegrass; format: in vivo, Eleusine indica; conditions: Preemergence, 0 to 100 scale
Outline: as §1

purple nutsedge = experiment: Test D purple nutsedge; format: in vivo, Cyperus rotundus; conditions: Preemergence, 0 to 100 scale
Outline: as §1

pitted morningglory = experiment: Test D pitted morningglory; format: in vivo, Ipomoea lacunosa; conditions: Preemergence, 0 to 100 scale
Outline: as §1

bermuda-grass = experiment: Test D bermudagrass; format: in vivo, Cynodon dactylon; conditions: Preemergence, 0 to 100 scale
Outline: as §1

CC(C)N(C(=O)n1oc(=O)n(C2CCCCC2)c1=O)c1ccc(F)cc1 [Compound 110]
Plant response rating, Johnsongrass (Johnson grass; Rate 250 g/ha): 20 | Plant response rating, Johnsongrass (Johnson grass; Rate 500 g/ha): 45 | Plant response rating, C. purslane (common pursiane; Rate 250 g/ha): 0 | Plant response rating, C. purslane (common pursiane; Rate 500 g/ha): 0 | Plant response rating, Tall Mallow (tall mallow; Rate 250 g/ha): 0 | Plant response rating, Tall Mallow (tall mallow; Rate 500 g/ha): 0 | Plant response rating, Sandbur (sandbur; Rate 250 g/ha): 98 | Plant response rating, Sandbur (sandbur; Rate 500 g/ha): 98 | Plant response rating, Surinam grass (surinam grass; Rate 250 g/ha): 70 | Plant response rating, Surinam grass (surinam grass; Rate 500 g/ha): 85 | Plant response rating, Com. groundsel (common groundsel; Rate 250 g/ha): 20 | Plant response rating, Com. groundsel (common groundsel; Rate 500 g/ha): 20 | Plant response rating, Spanishneedles (Spanishneedles): 0 | Plant response rating, Guineagrass (guineagrass; Rate 250 g/ha): 100 | Plant response rating, Guineagrass (guineagrass; Rate 500 g/ha): 100 | Plant response rating, Large crabgrass (large crabgrass; Rate 250 g/ha): 100 | Plant response rating, Large crabgrass (large crabgrass; Rate 500 g/ha): 100 | Plant response rating, Dallisgrass (dallisgrass; Rate 250 g/ha): 100 | Plant response rating, Dallisgrass (dallisgrass; Rate 500 g/ha): 100 | Plant response rating, Alexandergrass (Alexandergrass; Rate 250 g/ha): 100 | Plant response rating, Alexandergrass (Alexandergrass; Rate 500 g/ha): 100 | Plant response rating, Goosegrass (goosegrass; Rate 250 g/ha): 100 | Plant response rating, Goosegrass (goosegrass; Rate 500 g/ha): 100 | Plant response rating, Purple nutsedge (purple nutsedge; Rate 250 g/ha): 0 | Plant response rating, Purple nutsedge (purple nutsedge; Rate 500 g/ha): 0 | Plant response rating, P. morninglory (pitted morningglory; Rate 250 g/ha): 0 | Plant response rating, P. morninglory (pitted morningglory; Rate 500 g/ha): 0 | Plant response rating, Bermudagrass (bermuda-grass; Rate 250 g/ha): 100 | Plant response rating, Bermudagrass (bermuda-grass; Rate 500 g/ha): 100
